Test results as given in ChEMBL document CHEMBL1149322, “Carbonic anhydrase inhibitors. Inhibition of mitochondrial isozyme V with aromatic and heterocyclic sulfonamides” (J Med Chem, 2004).
pKi: −log10 of the molar value.

What was measured:
[1] = molecular target: T1, Carbonic anhydrase 4 (Bos taurus, UniProt Q95323)
T1 sequence (Q95323 whole entry): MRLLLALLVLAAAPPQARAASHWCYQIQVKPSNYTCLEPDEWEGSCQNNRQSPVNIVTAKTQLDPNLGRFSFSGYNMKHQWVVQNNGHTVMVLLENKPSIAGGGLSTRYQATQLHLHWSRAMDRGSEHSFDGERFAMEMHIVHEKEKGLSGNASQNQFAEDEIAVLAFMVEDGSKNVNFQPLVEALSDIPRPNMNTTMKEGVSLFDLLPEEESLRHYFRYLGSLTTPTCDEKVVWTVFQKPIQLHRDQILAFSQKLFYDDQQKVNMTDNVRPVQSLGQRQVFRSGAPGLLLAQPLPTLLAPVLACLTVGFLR

[2] = molecular target: Carbonic anhydrase 2 (Homo sapiens, UniProt P00918)
[3] = molecular target: Carbonic anhydrase 1 (Homo sapiens, UniProt P00915)
Chain of Carbonic anhydrase 1 (P00915 whole entry): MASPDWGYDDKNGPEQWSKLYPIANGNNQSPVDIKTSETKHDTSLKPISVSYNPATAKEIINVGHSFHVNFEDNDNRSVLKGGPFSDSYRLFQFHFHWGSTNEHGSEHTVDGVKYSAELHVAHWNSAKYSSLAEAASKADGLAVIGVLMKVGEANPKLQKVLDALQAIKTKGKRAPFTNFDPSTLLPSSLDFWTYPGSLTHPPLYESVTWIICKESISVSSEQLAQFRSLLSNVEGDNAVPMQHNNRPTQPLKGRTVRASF

Row | pKi [1] | pKi [2] | pKi [3] | Compound
1 | 8.40 | 9.00 | 8.30 | CC(=O)Nc1ccc(S(=O)(=O)Nc2nnc(S(N)(=O)=O)s2)cc1Cl
2 | 5.63 |  |  | CCCCC(=O)Nc1ccc(S(N)(=O)=O)cc1
3 |  |  | 7.16 | NS(=O)(=O)c1ccc(CNC(=O)c2cc3ccccc3oc2=O)cc1
4 | 7.07 |  |  | NS(=O)(=O)c1ccc(NS(=O)(=O)c2ccccc2)cc1
5 |  |  | 7.18 | NS(=O)(=O)c1ccc(CCNC(=O)c2cc3ccccc3oc2=O)cc1
6 | 5.60 |  |  | CCCC(=O)Nc1ccc(S(N)(=O)=O)cc1
7 | 7.66 | 8.00 | 7.51 | NS(=O)(=O)c1ccc(NS(=O)(=O)c2ccc([N+](=O)[O-])cc2)cc1
8 | 7.70 | 7.89 | 7.92 | NS(=O)(=O)c1ccc(CCNC(=O)Nc2ccc(Cl)c(Cl)c2)cc1
9 | 5.59 |  |  | CC(C)(C)C(=O)Nc1ccc(S(N)(=O)=O)cc1
10 | 7.82 | 8.05 | 7.40 | NS(=O)(=O)c1ccc(NS(=O)(=O)c2ccc(F)cc2)cc1
11 | 8.10 | 8.52 |  | CC(=O)Nc1ccc(S(=O)(=O)Nc2nnc(S(N)(=O)=O)s2)cc1
12 | 8.40 | 8.70 |  | CC(=O)Nc1ccc(S(=O)(=O)Nc2nnc(S(N)(=O)=O)s2)cc1Br
13 | 6.89 | 6.92 | 6.00 | NS(=O)(=O)c1ccc(/N=C\c2ncc[nH]2)cc1
14 | 7.41 | 7.55 | 7.16 | NS(=O)(=O)c1ccc(CCNS(=O)(=O)c2ccccc2)cc1
15 | 6.79 |  | 6.05 | NS(=O)(=O)c1nnc(NC(=O)c2ccccc2)s1
16 | 5.58 |  |  | CCC(=O)Nc1ccc(S(N)(=O)=O)cc1

Row | pKi [1] | pKi [2] | pKi [3] | Compound
17 |  |  | 7.13 | NS(=O)(=O)c1ccc(NC(=O)c2cc3ccccc3oc2=O)cc1
18 | 6.92 | 7.12 | 6.73 | CC(=O)Nc1ccc(S(=O)(=O)NCCc2ccc(S(N)(=O)=O)cc2)cc1
19 | 7.19 |  |  | NS(=O)(=O)c1ccc(CNS(=O)(=O)c2ccccc2)cc1
20 | 5.55 |  |  | CC(C)C(=O)Nc1ccc(S(N)(=O)=O)cc1
21 | 6.85 |  | 6.10 | NS(=O)(=O)c1ccc(CNC(=O)Nc2ccccc2)cc1
22 | 7.35 |  |  | CCN[C@H]1CC(CCCOC)S(=O)(=O)c2sc(S(N)(=O)=O)cc21 (stereo not given in full)
23 | 8.00 | 8.70 | 6.60 | NS(=O)(=O)c1nnc(NC(=O)CCCCC(F)(F)C(F)(F)F)s1
24 |  | 9.00 | 8.22 | CC(=O)Nc1ccc(S(=O)(=O)Nc2nnc(S(N)(=O)=O)s2)cc1F
25 | 5.68 |  |  | NS(=O)(=O)c1ccc(NC(=O)C(F)(F)F)cc1
26 | 6.01 | 7.20 | 4.85 | CCCCCC(=O)Nc1ccc(S(N)(=O)=O)cc1
27 | 6.75 |  |  | NS(=O)(=O)c1ccc(NC(=O)c2ccccc2)cc1
28 | 6.22 |  | 6.02 | NS(=O)(=O)c1ccc(NC(=O)CCCCC(F)(F)C(F)(F)F)cc1
29 | 5.55 | 6.61 | 4.67 | CC(=O)Nc1ccc(S(N)(=O)=O)cc1
30 | 6.76 | 7.77 | 6.07 | Cn1nc(S(N)(=O)=O)s/c1=N/C(=O)c1ccccc1
31 | 6.73 |  | 6.19 | CC(C)(C)C(=O)Nc1nnc(S(N)(=O)=O)s1

Row | Compound | pKi [1] | pKi [2] | pKi [3]
32 | Cn1nc(S(N)(=O)=O)s/c1=N/C(=O)c1ccco1 | 7.52 | 8.22 | 6.54
33 | Cn1nc(S(N)(=O)=O)s/c1=N/C(=O)CCCCC(F)(F)C(F)(F)F | 8.10 |  | 6.57
